Measurements taken from patent US10399940B2, “Substituted pyrrolidines and methods of use” (AbbVie S.à.r.l., priority 2016, dated 2019).
Like-named read-outs stand apart in the source and are kept apart here.

Molecular target: T1, F508delCFTR (Homo sapiens, UniProt P13569, DEL508-508)
T1 construct: expressed in transfected cells; host or cells: CFBE41o- (human lung derived epithelial cell line), doxycycline-inducible expression
Assay: Cell Surface Expression-Horse Radish Peroxidase (CSE-HRP) assay
Format: cell-based
Conditions: CFBE41o-F508delCFTR-HRP cells; for Maximum % activity (with co-corrector): with co-corrector (2 μM); for Maximum % activity (with co-corrector) / Maximum % activity (without co-corrector): normalized to on-plate positive control, highest concentration 20 μM
Summary of the method: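 CFBE41o- cells expressed F508delCFTR with HRP in the fourth exofacial loop, induced by 0.5 μg/mL doxycycline for 72 h at 37 °C. Compounds alone or with 2 μM co-corrector ran 18–24 h at 33 °C, 8-point 3-fold from 20 μM. Washed-cell luminol luminescence was normalized to DMSO and positive control, fitted sigmoidally for EC50 (three plates).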

[1] = test compound without co-corrector, 18-24 hours at 33° C., read-out: EC50 (without co-corrector)
[2] = with co-corrector (2 μM of 3-[(2R,4R)-4-({[1-(2,2-difluoro-1,3-benzodioxol-5-yl)cyclopropyl]carbonyl}amino)-7-methoxy-3,4-dihydro-2H-chromen-2-yl]benzoic acid), read-out: EC50 (with co-corrector)

T1 sequence (P13569 with tags, fused parts or gaps DEL508-508): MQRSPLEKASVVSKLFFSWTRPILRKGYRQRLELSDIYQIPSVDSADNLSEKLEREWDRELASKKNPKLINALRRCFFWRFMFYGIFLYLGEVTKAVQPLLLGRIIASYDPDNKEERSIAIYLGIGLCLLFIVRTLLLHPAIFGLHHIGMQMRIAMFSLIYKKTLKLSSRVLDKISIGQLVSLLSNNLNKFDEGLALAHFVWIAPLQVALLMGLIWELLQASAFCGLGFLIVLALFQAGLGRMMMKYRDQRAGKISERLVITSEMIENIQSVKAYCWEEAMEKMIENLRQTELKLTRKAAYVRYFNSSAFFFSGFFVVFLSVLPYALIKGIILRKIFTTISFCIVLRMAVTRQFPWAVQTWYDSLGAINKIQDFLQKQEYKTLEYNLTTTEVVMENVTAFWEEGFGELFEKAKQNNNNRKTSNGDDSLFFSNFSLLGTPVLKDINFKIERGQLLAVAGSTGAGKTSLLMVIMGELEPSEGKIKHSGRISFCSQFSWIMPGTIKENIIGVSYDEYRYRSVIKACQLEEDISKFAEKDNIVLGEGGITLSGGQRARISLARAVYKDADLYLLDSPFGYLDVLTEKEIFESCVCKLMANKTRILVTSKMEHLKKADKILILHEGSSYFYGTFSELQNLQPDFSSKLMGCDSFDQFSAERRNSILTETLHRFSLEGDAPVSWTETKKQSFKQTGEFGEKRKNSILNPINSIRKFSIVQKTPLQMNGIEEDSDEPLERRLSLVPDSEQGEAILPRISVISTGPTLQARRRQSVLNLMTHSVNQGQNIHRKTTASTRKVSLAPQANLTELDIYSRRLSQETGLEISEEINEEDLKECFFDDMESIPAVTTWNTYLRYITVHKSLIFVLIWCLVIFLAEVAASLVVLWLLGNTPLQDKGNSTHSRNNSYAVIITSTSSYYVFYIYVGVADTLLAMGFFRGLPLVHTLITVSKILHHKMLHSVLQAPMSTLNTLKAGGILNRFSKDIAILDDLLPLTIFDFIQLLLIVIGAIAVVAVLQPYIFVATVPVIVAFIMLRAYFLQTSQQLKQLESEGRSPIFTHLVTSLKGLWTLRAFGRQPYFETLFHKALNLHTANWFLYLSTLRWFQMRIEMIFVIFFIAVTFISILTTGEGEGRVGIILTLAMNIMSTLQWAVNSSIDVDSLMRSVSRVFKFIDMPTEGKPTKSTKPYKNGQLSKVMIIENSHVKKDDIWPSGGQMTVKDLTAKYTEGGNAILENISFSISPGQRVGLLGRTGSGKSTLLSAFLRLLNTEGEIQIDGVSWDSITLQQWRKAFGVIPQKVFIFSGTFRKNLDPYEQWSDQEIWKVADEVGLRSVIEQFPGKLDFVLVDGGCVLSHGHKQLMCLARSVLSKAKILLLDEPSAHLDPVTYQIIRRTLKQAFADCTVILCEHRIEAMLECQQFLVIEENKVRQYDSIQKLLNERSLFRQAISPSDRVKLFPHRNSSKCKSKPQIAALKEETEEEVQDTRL

With `CCOC(=O)N1[C@H](C(=O)O)[C@@H](C(C)(C)C)[C@H](OCc2cc(C(F)(F)F)cnc2OC)[C@@H]1c1cccc(C(C)(C)C)c1` [Example 152, (2S,3R,4S,5S)-3-tert-butyl-5-(3-tert-butylphenyl)-1-(ethoxycarbonyl)-4-{[2-methoxy-5-(trifluoromethyl)pyridin-3-yl]methoxy}pyrrolidine-2-carboxylic acid] the EC50 [1] was less than 1 µM, the EC50 [2] was 1 to 10 µM and the “Maximum % activity (with co-corrector)” value was “++ (≥150 and <350)”. For the same compound, the “Maximum % activity (without co-corrector)” value was “+ (<100)”.

With `COc1ncc(C(F)(F)F)cc1CO[C@H]1[C@H](C(C)(C)C)[C@@H](C(=O)O)N(C(=O)OC(C)C)[C@H]1c1cccc(C(C)(C)C)c1` [Example 153, (2S,3R,4S,5S)-3-tert-butyl-5-(3-tert-butylphenyl)-4-{[2-methoxy-5-(trifluoromethyl)pyridin-3-yl]methoxy}-1-{[(propan-2-yl)oxy]carbonyl}pyrrolidine-2-carboxylic acid] the EC50 [1] was less than 1 µM, the EC50 [2] was less than 1 µM and the “Maximum % activity (with co-corrector)” value was “++ (≥150 and <350)”. For the same compound, the “Maximum % activity (without co-corrector)” value was “+ (<100)”.

With `COc1ncc(C(F)(F)F)cc1CO[C@H]1[C@H](C(C)(C)C)[C@@H](C(=O)O)N(C(=O)[C@H]2C[C@@H]3CC[C@H]2O3)[C@H]1c1cccc(C(C)(C)C)c1` [Example 154, (2S,3R,4S,5S)-3-tert-butyl-5-(3-tert-butylphenyl)-4-{[2-methoxy-5-(trifluoromethyl)pyridin-3-yl]methoxy}-1-[(1R,2S,4S)-7-oxabicyclo[2.2.1]heptane-2-carbonyl]pyrrolidine-2-carboxylic acid] the EC50 [1] was less than 1 µM, the EC50 [2] was less than 1 µM and the “Maximum % activity (with co-corrector)” value was “++ (≥150 and <350)”. For the same compound, the “Maximum % activity (without co-corrector)” value was “+ (<100)”.

With `COc1ncc(C2CCC2)cc1CO[C@H]1[C@H](C(C)(C)C)[C@@H](C(=O)O)N(C(=O)[C@@H]2CCCO2)[C@H]1c1ccccc1C(F)(F)F` [Example 155, (2S,3R,4S,5S)-3-tert-butyl-4-[(5-cyclobutyl-2-methoxypyridin-3-yl)methoxy]-1-[(2S)-oxolane-2-carbonyl]-5-[2-(trifluoromethyl)phenyl]pyrrolidine-2-carboxylic acid] the EC50 [1] was 1 to 10 µM, the EC50 [2] was less than 1 µM and the “Maximum % activity (with co-corrector)” value was “+++ (≥350)”. For the same compound, the “Maximum % activity (without co-corrector)” value was “++ (≥100 and <200)”.

`COc1ncc(C(F)(F)F)cc1CO[C@H]1[C@H](C(C)(C)C)[C@@H](C(=O)O)N(C(=O)[C@@H]2CCCO2)[C@H]1c1ccccc1C(F)(F)F` [Example 156, (2S,3R,4S,5S)-3-tert-butyl-4-{[2-methoxy-5-(trifluoromethyl)pyridin-3-yl]methoxy}-1-[(2S)-oxolane-2-carbonyl]-5-[2-(trifluoromethyl)phenyl]pyrrolidine-2-carboxylic acid] was tested, and the EC50 [1] was 1 to 10 µM, the EC50 [2] was less than 1 µM and the “Maximum % activity (with co-corrector)” value was “+++ (≥350)”. The “Maximum % activity (without co-corrector)” value was “++ (≥100 and <200)”.

`COc1ncc(C(F)(F)F)cc1CO[C@H]1[C@H](C(C)(C)C)[C@@H](C(=O)O)N(C(=O)[C@@H]2CCCCO2)[C@H]1c1cccc(C(C)(C)C)c1` [Example 158, (2S,3R,4S,5S)-3-tert-butyl-5-(3-tert-butylphenyl)-4-{[2-methoxy-5-(trifluoromethyl)pyridin-3-yl]methoxy}-1-[(2S)-oxane-2-carbonyl]pyrrolidine-2-carboxylic acid] was tested, and the EC50 [1] was less than 1 µM, the EC50 [2] was less than 1 µM and the “Maximum % activity (with co-corrector)” value was “+++ (≥350)”. The “Maximum % activity (without co-corrector)” value was “++ (≥100 and <200)”.

With `COc1ncc(C(F)(F)F)cc1CO[C@H]1[C@H](C(C)(C)C)[C@@H](C(=O)O)N(C(=O)[C@@H]2CCCO2)[C@H]1c1ccccc1Br` [Example 159, (2S,3R,4S,5S)-5-(2-bromophenyl)-3-tert-butyl-4-{[2-methoxy-5-(trifluoromethyl)pyridin-3-yl]methoxy}-1-[(2S)-oxolane-2-carbonyl]pyrrolidine-2-carboxylic acid] the EC50 [1] was less than 1 µM, the EC50 [2] was less than 1 µM and the “Maximum % activity (with co-corrector)” value was “+++ (≥350)”. The “Maximum % activity (without co-corrector)” value was “+ (<100)”.
